Reference: patent US10175256B2, “Compositions and methods utilizing lysophosphatidylcholine scaffolds” (National University Of Singapore, priority 2013, dated 2019)
“And” between values parts separate entries of the source, which are not always exact repeats. Equal values may be shown once.

Legend:
[1] = biological target: T1, mouse Mfsd2a (Mus musculus, UniProt Q9DA75); test: Cell-based free fatty acid transport/uptake in Mfsd2a expressing HEK293 cells (mass spectrometry, TLC; Table 1); conditions: for % DHA in PC + lysoPC / % DHA in PE + lysoPE / % DHA in PI and lysoPI / % DHA in PS: Mfsd2a expressing HEK293 cells
T1 construct: expressed in transfected cells; host or cells: HEK293
T1 sequence (Q9DA75 1-534): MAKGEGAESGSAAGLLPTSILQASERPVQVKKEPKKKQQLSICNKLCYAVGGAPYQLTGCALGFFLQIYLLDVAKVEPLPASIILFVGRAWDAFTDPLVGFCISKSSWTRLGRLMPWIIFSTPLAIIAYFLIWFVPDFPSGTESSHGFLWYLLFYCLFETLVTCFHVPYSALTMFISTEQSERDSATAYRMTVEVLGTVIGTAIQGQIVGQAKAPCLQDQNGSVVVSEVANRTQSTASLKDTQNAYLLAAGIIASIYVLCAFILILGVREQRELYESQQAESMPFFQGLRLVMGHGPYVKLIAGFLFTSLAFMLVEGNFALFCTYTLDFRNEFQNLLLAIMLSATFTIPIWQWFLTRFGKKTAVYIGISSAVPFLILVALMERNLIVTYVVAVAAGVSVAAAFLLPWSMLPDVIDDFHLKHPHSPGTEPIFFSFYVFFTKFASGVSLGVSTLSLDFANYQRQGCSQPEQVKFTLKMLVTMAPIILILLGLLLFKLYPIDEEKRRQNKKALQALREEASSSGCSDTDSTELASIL
Procedure, shortened: (§1)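 HEK293 cells expressing mouse Mfsd2a, or mock controls, were incubated overnight with 100 μM BSA-complexed fatty acids. Lipids were extracted in hexane:isopropanol (3:2) and phospholipid species quantified by HPLC-MS/MS against spiked internal standards. For TLC, cells received 100 μM [^14C]-oleate overnight, and phospholipids and neutral lipids were resolved.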

[2] = system: mouse Mfsd2a; test: as above; conditions: mock HEK293 cells
Procedure, shortened: as §1

[3] = biological target: T2, Mfsd2a (Mus musculus, UniProt Q9DA75); test: In vivo transport of radiolabeled, fluorescent LPCs and unesterified DHA in Mfsd2a KO and wild-type mice; set-up: from tissue; host or cells: living mice; brain (blood-brain barrier endothelium), liver, heart; fetal brain
T2 sequence (Q9DA75 1-534): T1 sequence (Q9DA75 1-534)
Protocol: Male and female mice of age of 6-8 weeks were IV injected with 75 μl of 20 mM radiolabeled LPC-[…], 100 μl of 10 mM LPC-[^14C]DHA/BSA complex or 82 μl of 12.2 mM [^14C]DHA/BSA complex in a total volume of 150 μl of phosphate-buffered saline. At 2 hours post injection, mice were anesthetized and perfused for 5 mins with PBS containing 0.5% BSA in order to remove blood and lipid tracer bound to the brain vasculature. Tissues were harvested for lipid extraction. For lipid extraction, tissues were weighed and similar amounts of tissues were homogenized in chloroform/methanol. Lipids from the organic phase were mixed with scintillant and scintillation counted. Similar experiments were also performed with an injection of 300 μg NBD-LPC/BSA or 300 μg TopFluor-LPC/BSA complex per mouse. In this experiment, mice were perfused for 5 mins with PBS followed 15 mins perfusion with 4% paraformaldehyde (PFA) for tissue fixation. Brain sections of WT and KO with a thickness of 40 μm were prepared and scanned using green fluorescence mode in Typhoon FLA 9000 scanner (Agilent). NBD-LPC accumulation was expressed as fluorescence of each section per its area. Dietary DHA transport from mother to fetus was also measured using [^14C]DHA/BSA complex. Pregnant females at e18.5 was gavaged with bolus of [^14C]DHA/BSA complex (200 μl of 10 mM [^14C]DHA/BSA/mouse). Brain of fetuses were collected 20 hours post-gavage and weighed. Lipid extraction and radioactivity were performed as described above.

[4] = biological target: T2, Mfsd2a; test: Dietary DHA transport from mother to fetus (fetal brain uptake); assay type: in vivo, mice; set-up: from tissue; host or cells: living mice; brain (blood-brain barrier endothelium), liver, heart; fetal brain
Protocol: FIG. 21. […] Heterozygous female mice were gavaged with 100 ul DHA oil (containing 26% DHA triglyceride and 6% EPA, total omega-3 is 35%) every 2 days for 2 weeks prior to conception in crosses with KO males. […] The rationale for using HET and KO intercrosses was to increase the yield of KO mice in this rescue study. During gestation, pregnant mice were continued on gavages of DHA every 2 days. Gavages of mothers continued during breastfeeding and pups were weaned onto normal diet at 3 weeks of age and gavaged every 2 days with DHA for 8 weeks. a, brain weight of adult WT (n=4) and KO (n=4) mice aged 8 weeks after treatment with dietary DHA oil. […] To test this possibility, pregnant het mothers intercrossed to KO fathers at e17.5-e19.5, were gavaged with [^14C]DHA and uptake into fetal brains were quantified. […] Data are expressed as mean±SEM. *P<0.05. ***P<0.001.
Male and female mice of age of 6-8 weeks were IV injected with 75 μl of 20 mM radiolabeled LPC-[…], 100 μl of 10 mM LPC-[^14C]DHA/BSA complex or 82 μl of 12.2 mM [^14C]DHA/BSA complex in a total volume of 150 μl of phosphate-buffered saline. […] Lipids from the organic phase were mixed with scintillant and scintillation counted. […] Brain sections of WT and KO with a thickness of 40 μm were prepared and scanned using green fluorescence mode in Typhoon FLA 9000 scanner (Agilent). […]

[5] = 100 uM Alpha-linolenic fatty acid/BSA overnight, replicate columns
[6] = 100 uM Arachidonic fatty acid/BSA overnight
[7] = 100 uM Eicosapentaenoic fatty acid/BSA overnight
[8] = 100 uM Docosahexaenoic acid/BSA overnight
[9] = 100 uM Eicosapentaenoic acid/BSA overnight
[10] = 100 uM Linoleic fatty acid/BSA overnight
[11] = 100 uM Oleic fatty acid/BSA overnight

CCC=CCC=CCC=CCC=CCC=CCC=CCC[14C](=O)O [[^14C]DHA, [1-^14C]docosahexaenoic acid, reference compound]
transport of unesterified fatty acid by Mfsd2a ([1]; HEK293 cells, 100 μM fatty acid/BSA overnight): did not transport | % DHA in PC + lysoPC [1, 5]: 0.2353% and 0.2194% and 0.2422% and 0.2191% | % DHA in PE + lysoPE [1, 5]: 13.49% and 15.19% and 13.82% and 14.8475% | % DHA in PI and lysoPI [1, 5]: 0.05995% and 0.06331% and 0.07073% and 0.06627% | % DHA in PS [1, 5]: 0.1602% and 0.1425% and 0.1723% and 0.1454% | % DHA in PC + lysoPC [1, 6]: 0.08166% and 0.07964% and 0.09753% and 0.09194% | % DHA in PE + lysoPE [1, 6]: 7.284% and 8.765% and 7.721% and 8.735% | % DHA in PI and lysoPI [1, 6]: 0.01388% and 0.01389% and 0.0161% and 0.01507% | % DHA in PS ([1]; 100 uM Arachidonic fatty acid/BSA overnight, replicate columns): 0.1231% and 0.1085% and 0.1181% and 0.1151% | % DHA in PE + lysoPE [1, 7]: 18.3299% and 16.89% and 16.6% and 16.53% | % DHA in PI and lysoPI [1, 7]: 0.048% and 0.05677% and 0.0498% and 0.05152% | % DHA in PS [1, 7]: 0.2062% and 0.2182% and 0.1861% and 0.2178% | % DHA in PC + lysoPC ([1]; 100 uM Linoleic fatty acid/BSA overnight, replicate columns): 0.06735% and 0.06556% and 0.06667% and 0.06486% | % DHA in PC + lysoPC [1, 8]: 0.4167% and 0.3839% and 0.3923% and 0.3416% | % DHA in PE + lysoPE [1, 8]: 26.88% and 25.05% and 25.61% and 24.93% | % DHA in PI and lysoPI [1, 8]: 0.2363% and 0.1967% and 0.2348% and 0.1831% | % DHA in PS [1, 8]: 0.4937% and 0.5293% and 0.485% and 0.4533% | % DHA in PC + lysoPC [1, 9]: 0.1577% and 0.1414% and 0.143% and 0.141% | % DHA in PE + lysoPE [1, 10]: 10.0396% and 9.979% and 10.14% and 10.29% | % DHA in PI and lysoPI [1, 10]: 0.01746% and 0.01513% and 0.01522% and 0.01521% | % DHA in PS [1, 10]: 0.1229% and 0.1239% and 0.1343% and 0.1145% | % DHA in PC + lysoPC [1, 11]: 0.04304% and 0.04054% and 0.04274% and 0.04139% | % DHA in PE + lysoPE [1, 11]: 10.39% and 10.24% and 9.206% and 11.33% | % DHA in PI and lysoPI [1, 11]: 0.01405% and 0.01452% and 0.01424% and 0.01275% | % DHA in PC + lysoPC [2, 6]: 0.09113% and 0.09288% and 0.09495% | % DHA in PE + lysoPE [2, 6]: 8.696% and 8.987% and 7.919% | % DHA in PI and lysoPI [2, 6]: 0.01273% and 0.01321% and 0.01121% | % DHA in PE + lysoPE [2, 7]: 15.99% and 18.52% and 17.73% | % DHA in PI and lysoPI [2, 7]: 0.03815% and 0.04977% and 0.04803% | % DHA in PS [2, 7]: 0.1841% and 0.2258% and 0.1957% | % DHA in PC + lysoPC [2, 8]: 0.4237% and 0.3234% and 0.432% | % DHA in PE + lysoPE [2, 8]: 26.43% and 26.89% and 27.48% | % DHA in PI and lysoPI [2, 8]: 0.204% and 0.2547% and 0.2244% | % DHA in PS [2, 8]: 0.5491% and 0.6402% and 0.653% | % DHA in PC + lysoPC [2, 9]: 0.1385% and 0.1469% and 0.1528% | % DHA in PE + lysoPE [2, 10]: 9.697% and 10.5% and 10.2% | % DHA in PI and lysoPI [2, 10]: 0.01565% and 0.01716% and 0.01581% | % DHA in PS [2, 10]: 0.1596% and 0.1455% and 0.1427% | % DHA in PC + lysoPC [2, 11]: 0.04427% and 0.04402% and 0.04911% | % DHA in PE + lysoPE [2, 11]: 10.41% and 11.83% and 10.1% | % DHA in PI and lysoPI [2, 11]: 0.01286% and 0.01294% and 0.01231% | brain uptake in KO mice relative to wild-type ([3]; i.v. injection, 2 hrs post-injection, radiolabel): not reduced | brain uptake, unesterified DHA compared with LPC-DHA ([3]; wild-type brain, same amount injected i.v., 2 hrs): significantly lower | brain uptake by KO embryos compared to wild-type embryos ([4]; e18.5, maternal gavage): dramatically reduced | reduction in fetal brain uptake, KO relative to het ([4]; pregnant het mothers gavaged at e17.5-e19.5): 80%
